According to ChEMBL document CHEMBL5725974, “ASK1 inhibitor compounds and uses thereof” (2018):

Biological target: T1, Mitogen-activated protein kinase kinase kinase 5 (Homo sapiens, UniProt Q99683)
T1 sequence (Q99683 whole entry): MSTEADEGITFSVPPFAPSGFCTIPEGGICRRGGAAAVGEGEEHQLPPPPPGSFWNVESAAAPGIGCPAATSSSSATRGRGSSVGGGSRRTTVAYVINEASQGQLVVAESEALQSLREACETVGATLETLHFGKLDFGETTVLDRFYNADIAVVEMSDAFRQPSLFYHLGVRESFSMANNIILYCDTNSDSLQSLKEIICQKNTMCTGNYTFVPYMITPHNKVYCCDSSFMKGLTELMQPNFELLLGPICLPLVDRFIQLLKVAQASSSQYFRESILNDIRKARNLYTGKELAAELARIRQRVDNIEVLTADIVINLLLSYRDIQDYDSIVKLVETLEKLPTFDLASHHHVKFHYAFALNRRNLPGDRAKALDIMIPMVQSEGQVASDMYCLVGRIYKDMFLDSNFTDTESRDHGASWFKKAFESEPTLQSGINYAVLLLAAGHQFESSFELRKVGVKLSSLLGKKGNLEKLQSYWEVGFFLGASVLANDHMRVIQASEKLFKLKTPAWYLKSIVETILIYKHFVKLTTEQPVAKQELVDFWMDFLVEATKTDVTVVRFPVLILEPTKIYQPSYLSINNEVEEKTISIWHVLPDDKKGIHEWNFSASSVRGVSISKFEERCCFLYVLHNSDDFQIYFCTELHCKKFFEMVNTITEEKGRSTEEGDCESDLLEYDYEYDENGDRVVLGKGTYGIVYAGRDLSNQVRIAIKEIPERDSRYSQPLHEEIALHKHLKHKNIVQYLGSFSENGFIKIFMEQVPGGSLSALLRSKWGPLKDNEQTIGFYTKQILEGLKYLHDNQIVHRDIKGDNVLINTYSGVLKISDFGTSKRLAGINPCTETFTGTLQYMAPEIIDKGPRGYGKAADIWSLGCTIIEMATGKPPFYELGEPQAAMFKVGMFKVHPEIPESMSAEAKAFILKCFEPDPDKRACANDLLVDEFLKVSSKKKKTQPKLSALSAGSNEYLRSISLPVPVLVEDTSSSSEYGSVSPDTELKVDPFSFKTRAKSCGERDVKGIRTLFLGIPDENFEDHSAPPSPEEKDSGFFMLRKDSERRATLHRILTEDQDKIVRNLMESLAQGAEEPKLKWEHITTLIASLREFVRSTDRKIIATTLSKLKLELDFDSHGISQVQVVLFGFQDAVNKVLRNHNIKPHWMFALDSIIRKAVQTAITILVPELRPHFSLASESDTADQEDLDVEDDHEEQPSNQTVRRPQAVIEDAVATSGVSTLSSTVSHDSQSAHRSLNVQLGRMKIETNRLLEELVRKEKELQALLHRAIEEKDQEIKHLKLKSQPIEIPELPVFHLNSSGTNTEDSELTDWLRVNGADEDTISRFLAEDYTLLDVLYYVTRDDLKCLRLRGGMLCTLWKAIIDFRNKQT
Assay: ASK1 Kinase Assay: The ASK1 enzymatic assay was run following Promega ASK1 Kinase Enzyme System (Cat #V3881). The kit provides the protocol, enzymes and all reagents necessary to run an assay. Firstly, the compounds, enzyme, substrate and ATP were diluted in provided assay buffer. The final concentration of the enzyme was 50 nM, substrate (Myelin basic protein) 1 μg/ml and ATP 10 μM. The compound and the enzyme were pre-incubated in a 384 well white solid bottom plate (Greiner, Cat#784075) for 10 minutes. After incubation, the substrate and ATP were added and incubated for further 60 minutes. After 60 minutes, ADP-Glo™ was added and plate was incubated for another 40 minutes. After 40 minutes, Kinase Detection Reagent was added and the plate was incubated for 45 minutes. After 45 minutes, plate was read on Perkin Elmer EnVision using luminescence read (0.5 seconds/well).

Compound `O=C(NC1CC1)c1ccc2c(c1)CN(c1cccc(-c3nncn3C3CC3)n1)C2=O` has an IC50 of under 0.2 µM.
